In ChEMBL document CHEMBL3045574, “Safening Effects of 1, 8-Naphthalic Anhydride in Corn Plants Treated with Bensulfuron-methyl and Imazaquin” (J Pestic Sci, 1997):
Activity calls are given as the source filed them. The calls are words filed in the database; no cut-off is given here.

Columns and labels:
Zea mays [1] = assay: Increase of acetyl CoA carboxylase activity in Zea mays (maize) at 0.2 % w/w after 15 min relative to control; format: functional
Zea mays [2] = assay: Increase of acetolactate synthase activity in Zea mays (maize) at 0.2 % w/w after 15 min relative to control; format: functional
Zea mays [3] = assay: Protection against imazaquin-induced growth inhibition of Zea mays (maize) assessed as safening index at 0.05 to 0.4 % w/w treated 1 to 14 days before imazaquin challenge measured after 3 weeks relative to untreated control; format: functional
Zea mays [4] = assay: Protection against bensulfuron-methyl-induced growth inhibition of Zea mays (maize) assessed as safening index at 0.05 to 0.4 % w/w treated 1 to 14 days before bensulfuron-methyl challenge measured after 3 weeks relative to untreated control; format: functional
Zea mays [5] = assay: Effect on pyruvate content in Zea mays (maize) endosperms assessed per gram of fresh weight at 0.2 % w/w after 10 days (reference value: 11.4 umol); format: functional
Zea mays [6] = assay: Effect on pyruvate content in Zea mays (maize) roots assessed per gram of fresh weight at 0.2 % w/w after 10 days (reference value: 13.3 umol); format: functional
Zea mays [7] = assay: Effect on pyruvate content in Zea mays (maize) shoot assessed per gram of fresh weight at 0.2 % w/w after 10 days (reference value: 18.4 umol); format: functional
Zea mays [8] = assay: Decrease of imazaquin-induced increase of pyruvate content in Zea mays (maize) assessed per gram of fresh weight at 0.2 % w/w after 10 days; format: functional, organism-based
Zea mays [9] = assay: Effect on pyruvate content in Zea mays (maize) embryos assessed per gram of fresh weight at 0.2 % w/w after 10 days (reference value: 8.5 umol); format: functional
Zea mays [10] = assay: Decrease of bensulfuron-methyl-induced increase of pyruvate content in Zea mays (maize) assessed per gram of fresh weight at 0.2 % w/w after 10 days; format: functional, organism-based
Zea mays [11] = assay: Increase of acetolactate synthase activity in Zea mays (maize) root; format: functional
Zea mays [12] = assay: Increase of acetolactate synthase activity in Zea mays (maize) shoot; format: functional
Acetolactate synthase = biological target: T1, Acetolactate synthase (Zea mays, UniProt Q41768+Q41769); assay: Inhibition of Zea mays (maize) acetolactate synthase; format: protein assay
T1 sequence (Q41768 whole entry): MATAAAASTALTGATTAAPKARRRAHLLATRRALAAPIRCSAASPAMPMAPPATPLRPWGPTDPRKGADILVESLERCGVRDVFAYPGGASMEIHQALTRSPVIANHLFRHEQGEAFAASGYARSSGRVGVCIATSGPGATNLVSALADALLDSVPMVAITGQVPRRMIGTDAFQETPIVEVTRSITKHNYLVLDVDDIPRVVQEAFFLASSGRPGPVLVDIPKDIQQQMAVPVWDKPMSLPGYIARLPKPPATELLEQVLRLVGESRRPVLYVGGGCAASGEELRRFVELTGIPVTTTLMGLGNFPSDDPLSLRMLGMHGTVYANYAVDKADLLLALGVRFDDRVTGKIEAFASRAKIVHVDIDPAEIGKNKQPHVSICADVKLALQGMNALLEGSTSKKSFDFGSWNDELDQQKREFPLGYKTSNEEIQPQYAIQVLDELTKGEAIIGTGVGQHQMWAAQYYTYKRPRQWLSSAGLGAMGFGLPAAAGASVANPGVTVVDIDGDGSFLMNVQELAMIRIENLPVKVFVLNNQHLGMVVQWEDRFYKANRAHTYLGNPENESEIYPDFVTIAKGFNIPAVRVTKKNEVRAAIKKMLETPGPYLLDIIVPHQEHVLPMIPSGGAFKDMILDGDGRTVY
T1 sequence (Q41769 whole entry): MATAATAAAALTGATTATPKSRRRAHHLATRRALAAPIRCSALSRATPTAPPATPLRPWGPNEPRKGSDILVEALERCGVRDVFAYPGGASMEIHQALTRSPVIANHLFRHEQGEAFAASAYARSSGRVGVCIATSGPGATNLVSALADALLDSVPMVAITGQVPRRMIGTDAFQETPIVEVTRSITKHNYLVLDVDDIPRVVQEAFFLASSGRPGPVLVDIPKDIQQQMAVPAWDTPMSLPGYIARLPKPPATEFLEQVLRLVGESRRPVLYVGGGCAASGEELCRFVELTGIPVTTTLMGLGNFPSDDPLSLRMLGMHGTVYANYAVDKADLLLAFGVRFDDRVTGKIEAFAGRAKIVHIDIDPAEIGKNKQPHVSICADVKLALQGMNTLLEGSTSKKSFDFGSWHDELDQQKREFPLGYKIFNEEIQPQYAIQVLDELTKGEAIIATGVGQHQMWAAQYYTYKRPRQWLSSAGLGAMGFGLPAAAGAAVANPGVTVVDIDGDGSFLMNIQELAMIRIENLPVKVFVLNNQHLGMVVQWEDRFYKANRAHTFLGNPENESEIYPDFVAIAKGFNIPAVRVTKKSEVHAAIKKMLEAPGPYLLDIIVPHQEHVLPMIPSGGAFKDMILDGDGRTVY

Compound	Activity (Zea mays [1]) [%]	Activity (Zea mays [2]) [%]	Ratio (Zea mays [3])	Ratio (Zea mays [4])	Activity (Zea mays [5]) [µmol]	Activity (Zea mays [6]) [µmol]	Activity (Zea mays [7]) [µmol]	Activity (Zea mays [8])	Activity (Zea mays [9]) [µmol]	Activity (Zea mays [10])	Activity (Zea mays [11]) [%]	Activity (Zea mays [12]) [%]	I50 (Acetolactate synthase) [µM]
O=C1OC(=O)c2cccc3cccc1c23 [1,8-NAPHTHALIC ANHYDRIDE]	216	31.9	5.1	303	11.2	13	16.2	Active	8	Active	30	24	–
COC(=O)c1ccccc1CS(=O)(=O)NC(=O)Nc1nc(OC)cc(OC)n1 [BENSULFURON METHYL]	–	–	–	–	–	–	–	–	–	–	–	–	0.2
CC(C)C1(C)N=C(c2nc3ccccc3cc2C(=O)O)NC1=O (centres undefined) [IMAZAQUIN]	–	–	–	–	–	–	–	–	–	–	–	–	11.8
